Drawing on PubChem BioAssay (NCI), this text covers TGI for twelve compounds.

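Exposure lasted 48 hours, with cells grown in 96-well plates and compounds tested at five concentrations. The concentration for full growth arrest is given as TGI.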

Holding throughout (experiment): inhibition of tumour cell growth, NCI panel, 48 h
The subject of assay [1] is UACC-62 melanoma.
Assay [2] deals with HS 578T breast.
Assay [3] relates to SW-620 colon.
Assay [4] concerns SK-OV-3 ovarian.
Assay [5] concerns RXF 393 renal.
The test system of assay [6] is MCF7 breast.
Assay [7] deals with NCI-H460 lung.
In assay [8] the test system is OVCAR-5 ovarian.
Assay [9] has as its system HL-60(TB) leukemia.
Assay [10] deals with ACHN renal.

As for `CN(C)C(=O)CO/N=C1/C(c2c(O)[nH]c3ccccc23)=Nc2ccccc21`, the TGI was greater than 100 µM in assay [1]; greater than 100 µM in assay [2]; greater than 100 µM in assay [3]; greater than 100 µM in assay [4]; 58.6 µM in assay [5]; greater than 100 µM in assay [6]. Besides, the TGI in assay [7], in assay [8], in [9] and in assay [10] was greater than 100 µM in each case.
Consider `OC1NC2CC3NC(O)C(O)NC3CC2NC1O` (stereo not given), for which the TGI in assay [1], in assay [2], in assay [3], in assay [4], in assay [5] and in assay [6] was greater than 100 µM in each case. The TGI in assay [7], in assay [8], in assay [9] and in assay [10] was greater than 100 µM throughout.
Take `Cc1ccc(C(=O)/C=C/N2CCN(c3cccc(C(F)(F)F)c3)CC2)cc1`: the TGI in [1] came out at 34.8 µM; in [2], 51.4 µM; in assay [3] it was 49.8 µM; in [4] it was 95.5 µM; in [5], 33.1 µM; in assay [6], 34 µM. Besides, the TGI in assay [7] came out at 47.8 µM; in assay [8] it was 39.1 µM; in [9], 60.2 µM; in assay [10] it was 60.5 µM.
On to `CC(=O)O[C@@H]1CC2[C@@H](CCC3Cc4nc5c(nc4C[C@@]32C)CC2CC[C@@H]3C(CC[C@@]4(C)C3CC[C@@H]4C(C)CCCC(C)C)[C@@]2(C)C5)C2C[C@@H]3OC4(CCC(C)CO4)C(C)[C@@H]3[C@]21C` (stereo not given in full), for which the TGI is 50.1 µM in assay [1]; 96.4 µM in assay [2]; greater than 100 µM in assay [3]; greater than 100 µM in [4]; 50.3 µM in assay [5]; greater than 100 µM in assay [6]. The TGI in [7], in assay [8], in [9] and in assay [10] was greater than 100 µM each time.
As to `CC1(C)N=C(/C(C#N)=[N+](/[O-])C(=O)c2ccccc2)C(C)(C)N1O`, the TGI in assay [1], in assay [2], in [3], in assay [4], in [5] and in assay [6] was greater than 100 µM throughout. Further, the TGI in assay [7], in [8], in assay [9] and in [10] was greater than 100 µM each time.
As to `CC1=NN(c2cccc(Cl)c2)C2(C1)SCC(=O)N2c1nc2ccccc2s1` (stereo not given), the TGI in [1] was greater than 100 µM; in assay [2], greater than 100 µM; in [3], greater than 100 µM; in assay [4], 85.3 µM; in [5] it was 44.9 µM; in assay [6] it was greater than 100 µM. For the same compound, the TGI in assay [7] is 58.8 µM; in assay [8], greater than 100 µM; in [9], 43.1 µM; in [10], 79.9 µM.
As to `COc1cc(C(c2cc(OC)c(OC)c(OC)c2)N2C(=O)CCC2C(=O)O)cc(OC)c1OC` (stereo not given), the TGI in [1], in [2], in assay [3], in assay [4], in assay [5] and in [6] was greater than 100 µM throughout. Besides, the TGI in assay [7], in assay [8], in assay [9] and in [10] was greater than 100 µM throughout.
On to `CCOC(=S)SC/C(=N\OC(C)(C)OC)c1ccccc1`, for which the TGI in [1] was greater than 100 µM; in assay [2], greater than 100 µM; in [3] it was greater than 100 µM; in [4], greater than 100 µM; in assay [5], 70 µM; in assay [6], greater than 100 µM. For the same compound, the TGI is greater than 100 µM in assay [7], greater than 100 µM in [8], 54.7 µM in assay [9] and greater than 100 µM in assay [10].
For `CCOC(=O)C1CCCC1S(=O)(=O)c1ccc(C)cc1` (stereo not given), the TGI in assay [1], in [2], in assay [3], in [4], in [5] and in assay [6] was greater than 100 µM in each case. In addition, the TGI in assay [7], in assay [8], in assay [9] and in assay [10] was greater than 100 µM each time.
Turning to `CN(C)Cc1cc(C(=O)/C=C/c2c(F)cccc2Cl)cc(CN(C)C)c1O`, the TGI in [1] came out at 26.1 µM; in assay [2], 50.2 µM; in assay [3], 31.3 µM; in assay [4] it was 28.3 µM; in assay [5] it was 12.6 µM; in [6], 20.2 µM. In addition, the TGI in assay [7] turned out to be 11.8 µM; in assay [8], 36.2 µM; in assay [9], 8.49 µM; in assay [10], 15.4 µM.
For `Nc1nc(SCc2ccccc2[N+](=O)[O-])c2[nH]cnc2n1`, the TGI is greater than 100 µM in assay [1]; 24.7 µM in [2]; greater than 100 µM in assay [3]; greater than 100 µM in assay [4]; greater than 94 µM in assay [5]; greater than 100 µM in assay [6]. Besides, the TGI in [7] was greater than 76.1 µM; in [8], greater than 100 µM; in [9], greater than 86.1 µM; in assay [10], greater than 100 µM.
For the compound `O=C(OCc1c(-c2ccccc2)nn(-c2ccccc2)c1COC(=O)Oc1ccccc1)Oc1ccccc1`, the TGI in [1], in assay [2], in assay [3], in assay [4], in assay [5] and in assay [6] was greater than 100 µM each time. The TGI in assay [7], in assay [8], in [9] and in [10] was greater than 100 µM each time.
